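Values below derive from 48-hour exposures of cells grown in 96-well plates, with endpoints linearly interpolated between the two concentrations bracketing the appropriate inhibition level. The concentration for 50% growth inhibition is given as GI50.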 Active and inactive are the calls of the source. No stated cut-off is given here; in the data, active = GI50 up to about 1.1 µM and inactive = higher.

This is an account of results in ChEMBL document CHEMBL1201862, “PubChem BioAssay data set” (2004).

Holding throughout (test): DTP human tumour cell line panel, 48 h
For assay [1], the system named is DMS-114.
In assay [2] the test system is DMS-273.
Assay [3] concerns HOP-18.
In assay [4] the test system is KM-20L2.
Assay [5] has as its system LXFL 529.
Assay [6] concerns M19-MEL.
For assay [7], the system named is RXF 631.
Assay [8] relates to SNB-78.
Assay [9] deals with XF498.

As for `COC(=O)c1cccc2cccc(C(=O)Nc3ccc(Cl)cc3)c12`, the GI50 (in general, the concentration that inhibits growth by half) in assay [1] was 14.8 µM (inactive); in assay [2] it was 0.729 µM (active); in assay [3] it was > 100 µM (inactive); in assay [4], > 24.2 µM (inactive); in assay [5], 0.474 µM (active); in [6], 4.35 µM (inactive). In addition, the GI50 is > 86.1 µM (inactive) in assay [7], 56.1 µM (inactive) in [8] and > 73.3 µM (inactive) in assay [9].
